Experimental findings from US20240226100A1, “CONTROL OF PROTEIN EXPRESSION WITH TMP-PROTAC COMPOUNDS” (THE TRUSTEES OF THE UNIVERSITY OF PENNSYLVANIA, priority 2021, published 2024) are described below.

Series [1] has as its system eDHFR-YFP. The series is described as follows: Inhibitor test in HEK293T eDHFR-YFP+ cells, Western blot. The series is classed as cell-based, Escherichia coli. Conditions: inhibitor pre-incubated 1 h, then 100 nM 7c for 12 h. The protocol: Cells were then isolated as previously described and prepared for Western blot analysis. For readout by flow cytometry, 3×10^5 HEK293T^eDHFR-YFP+ cells were seeded in a clear (Falcon) 12-well plate (5×10^5 cells/well) in complete media and the cells were treated as described above the following day. Cells were washed, trypsinized, and collected following total of 13 h of incubation, and their YFP expression was analyzed on flow cytometer (BD).

Series [2] concerns eDHFR-YFP. The series is described as follows: Time and dose-dependent degradation of YFP in Jurkat-DYL / Jurkat eDHFR-YFP+ cells, flow cytometry. It is filed as cell-based, Escherichia coli. Conditions: Jurkat-DYL; 4, 8 and 18 h incubation, varying doses. Here is the method:
Likewise, Jurkat eDHFR-YFP (Jurkat^eDHFR-YFP+) cells are seeded in clear (Falcon) 12-well plates (3×10^5 cells/well) in complete media. […]

For series [3], the system named is DHFR-YFP (DY) direct fusion protein. The series is described as follows: Degradation mechanism in Jurkat-DYL cells pre-treated with epoxomicin or hydroxychloroquine sulfate, flow cytometry. It is filed as cell-based, Escherichia coli. Conditions: Jurkat-DYL pre-treated with DMSO, epoxomicin or hydroxychloroquine sulfate 2 h, then compound 4 h. Here is the method:
In FIG. 2, flow cytometric analysis is used to measure Jurkat-DYL cells expressing DHFR-YFP (DY) direct fusion protein pre-treated with DMSO, epoxomicin (EPOX), or hydroxychloroquine sulfate (HCS) for 2 hours before DMSO or compound 7b treatment for 4 hours.
In general terms: Flow cytometry measures light scatter and fluorescence of single cells or particles in a stream.

The test system of series [4] is eDHFR-YFP. The series is described as follows: Degradation of eDHFR-YFP in HEK293T eDHFR-YFP+ cells, Western blot with anti-YFP antibody. Conditions: 24 h. It is filed as cell-based, Escherichia coli. Here is the method:
HEK293T eDHFR-YFP (HEK293T^eDHFR-YFP+) and OVCAR8 eDHFR-luc (OVCAR8^eDHFR-luc+) cells are prepared in clear (Falcon) 6-well plates (5×10^5 cells/well) and cultured in complete media. Compound 7c is solubilized in 100% DMSO to 10 mM. 10 mM 7c is serially diluted in sterile water accordingly and each dose administered to cells in fresh media at equal volume, such that the final concentration of DMSO in cell media is <1%. Once incubation with drug is completed, media is removed by vacuum, cells are washed with phosphate-buffered saline (PBS), trypsonized at 37° C., quenched with media, and centrifuged (Thermo Scientific Sorvall Legend X1R) at 1000 RPM for 5 minutes. Media and cell debris are removed by vacuum.
Once cells are isolated by centrifugation (Thermo Scientific Sorvall Legend X1R), they are solubilized in radioimmunoprecipitation assay (RIPA) lysis buffer with protease inhibitor. Cell lysate is incubated on ice for 30 minutes, sonicated, then centrifuged (Thermo Scientific Sorvall Legend Micro 21R) at 14,800 RPM for 10 minutes. Supernatant is removed and transferred to a new Eppendorf tube.
Using Thermo Scientific bicinchoninic acid (BCA) assay kit, total cell protein is quantified and compared to bovine serum albumin (BSA) standards ranging from 10 to 0.625 mg/mL. Cell lysate is aliquoted into a 96-well clear plate (Falcon) and mixed with reagent and shaken at 37° C. for 30 minutes. Samples are analyzed by plate reader (ThermoFisher Varioskan Plusplate), where absorbance is measured at […]. A calibration curve is developed, and samples are prepared to equal mass (mg) of total protein for gel electrophoresis.
Cell lysate is prepared by mixing with 4 uL of loading dye and PBS to give equal total protein and equal total volume across all samples. Each sample is loaded into a NuPage gel (4-12% Bis-tris) and developed in NuPage MES Running Buffer. Once complete, the gel is removed and prepared for protein transfer to membrane. […]

Series [5] relates to FAP CAR-eDHFR direct fusion (DF). The series is described as follows: Dose response of surface CAR expression in primary human FAP-eDHFR DF CAR T cells, flow cytometry. It is filed as cell-based. Conditions: different doses, 24 hours. Here is the method: Generated CAR T cells were pelleted, resuspended in 2% BSA in PBS (Invitrogen), and incubated with Alexa Fluor® 647 AffiniPure F(ab′2) fragment goat anti-mouse IgG (Jackson ImmunoResearch Laboratories) for 30 minutes at room temperature. Stained cells were washed 3 times with PBS, and were analyzed on a flow cytometer (LSR II, BD Biosciences) for CAR and/or BFP expression. All flow data were analyzed using FlowJo software (FlowJo).
Following incubation, the cells were washed and stained with Alexa Fluor® 647 AffiniPure F(ab′2) fragment goat anti-mouse IgG (Jackson ImmunoResearch Laboratories) as described under “Flow Cytometry”, and their surface expression was analyzed on a flow cytometer (LSR II, BD Biosciences).
Data plotted as raw CAR stain fluorescence is shown in the left panel and percent of maximum CAR expression is shown in the right panel.
Values are reported as percent of maximum CAR expression (i.e. relative to CAR T cells that were treated with vehicle control). Each color represents a different donor (n=3).

The test system is the same in series [6]. The series is described as follows: Inhibitor test in primary human FAP-eDHFR DF CAR T cells, flow cytometry. The series is classed as cell-based. Conditions: inhibitor pre-incubated 1 hour, then 100 nM 7c for 4 hours. The protocol: Following pre-incubation, either 100 nM 7c or vehicle control DMSO (Sigma) was added to the wells, and cells were incubated with the drug for another 4 hours. Following incubation, the cells were washed and their surface CAR expression was assessed on a flow cytometer (BD Biosciences).
Following pre-incubation, the cells were incubated with 100 nM 7c for 4 hours and their CAR expression was assessed on a flow cytometer.

For series [7], the system named is FAP-eDHFR DF CAR T cells. Conditions: 10:1 E:T ratio overnight, I45 huFAP target cells.
Series [8] has as its system FAP-eDHFR DF CAR T cells. The settings on record: 1 hour at 37° C., with or without 5 μM unlabeled TMP.
Method: 3×10^6 CAR T cells were incubated with 6×10^6 counts per minute (cpm) of [^18F]FPTMP for 60 minutes in the presence or absence of unlabeled 5 μM TMP. Following incubation, cells were centrifuged at 1200 rpm and washed 3 times with cold PBS (Corning). After the third wash, the cell pellet was resuspended in 900 μL of PBS and split into 3 technical replicates of 300 μL. Radiotracer uptake was quantified on a gamma counter (PerkinElmer) and analyzed by dividing counts by the injected dose (ID) of [^18F]FPTMP. The final uptake was reported as a ratio between % ID normalized per 10^6 cells (% ID/10^6 cells) of the [^18F]FPTMP group and the blocked control (i.e. cells that were incubated with both unlabeled TMP and [^18F]FPTMP).

Where a name gives a salt, the structure may show the parent alone. Where a SMILES comes first, the peptide text is derived from it. The star is where a group is joined. Cbz = O=C(OCc1ccccc1)*

For the compound `Cn1cnc(N)c2ncnc1-2` [3-Methyladenine], the “effect of inhibitor on eDHFR-YFP degradation induced by 7c” value (“effect of inhibitor … by 7c” for short) with eDHFR-YFP [1] is recorded as “does not”.

Consider `COc1cc(Cc2cnc(N)nc2N)cc(OC)c1OCC(=O)NCCOCCOCCNc1cccc2c1C(=O)N(C1CCC(=O)NC1=O)C2=O` (centres unmarked) [Compound 7a, 2-(4-((2,4-diaminopyrimidin-5-yl)methyl)-2,6-dimethoxyphenoxy)-N-(2-(2-(2-((2-(2,6-dioxopiperidin-3-yl)-1,3-dioxoisoindolin-4-yl)amino)ethoxy)ethoxy)ethyl)acetamide], for which the “degradation of YFP (eDHFR fusion protein)” value (from here on “degradation of YFP”) with eDHFR-YFP [2] was “degrade eDHFR fusion proteins to low/no functional expression”.

`COc1cc(Cc2cnc(N)nc2N)cc(OC)c1OCCCC(=O)NCCOCCNc1cccc2c1C(=O)N(C1CCC(=O)NC1=O)C2=O` (centres unmarked) [Compound 7b, 4-(4-((2,4-diaminopyrimidin-5-yl)methyl)-2,6-dimethoxyphenoxy)-N-(2-(2-((2-(2,6-dioxopiperidin-3-yl)-1,3-dioxoisoindolin-4-yl)amino)ethoxy)ethyl)butanamide]: the “degradation of YFP” value with eDHFR-YFP [2] was “degrade eDHFR fusion proteins to low/no functional expression”. Moreover, the “mechanism of degradation of eDHFR-POI” value in series [3] was “primarily via a proteosome-mediated mechanism of degradation”.

On to `COc1cc(Cc2cnc(N)nc2N)cc(OC)c1OCCCC(=O)NCCOCCOCCOCCOCCOCCOCCNc1cccc2c1C(=O)N(C1CCC(=O)NC1=O)C2=O` (centres unmarked) [Compound 7e, 4-(4-((2,4-diaminopyrimidin-5-yl)methyl)-2,6-dimethoxyphenoxy)-N-(20-((2-(2,6-dioxopiperidin-3-yl)-1,3-dioxoisoindolin-4-yl)amino)-3,6,9,12,15,18-hexaoxaicosyl)butanamide], for which the “degradation of YFP” value with eDHFR-YFP [2] is on record as “degrade eDHFR fusion proteins to low/no functional expression”. In the series on eDHFR-YFP [4], the “degradation of eDHFR-YFP in dose response screen” value is “no degradation”.

Turning to `COc1cc(Cc2cnc(N)nc2N)cc(OC)c1OCCCC(=O)NCCOCCOCCNc1cccc2c1C(=O)N(C1CCC(=O)N(C)C1=O)C2=O` (centres unmarked) [Compound 7f, 4-(4-((2,4-diaminopyrimidin-5-yl)methyl)-2,6-dimethoxyphenoxy)-N-(2-(2-(2-((2-(1-methyl-2,6-dioxopiperidin-3-yl)-1,3-dioxoisoindolin-4-yl)amino)ethoxy)ethoxy)ethyl)butanamide], the “downregulation of surface CAR expression in dose response assay” value in series [5] was “does not result in downregulation of CAR expression from their surface”. The “eDHFR-YFP degradation at 100 nM” value with eDHFR-YFP [4] (100 nM) was “does not induce eDHFR-YFP degradation”.

With `CC[C@H](C)[C@H](NC(=O)[C@H]([C@@H](C)CC)N(C)C(C)=O)C(=O)N[C@H](C(=O)N[C@@H](CC(C)C)C(=O)[C@@]1(C)CO1)[C@@H](C)O` [Epoxomicin], the “effect of inhibitor … by 7c” value in the series on eDHFR-YFP [1] is on record as “blocks degradation induced by 7c”. In addition, in series [6], the “effect of inhibitor on TMP-POM 7c-mediated degradation of CAR” value (“effect of inhibitor … of CAR” for short) is recorded as “blocked TMP-POM 7c-mediated degradation of CAR”.

In the case of `CCN(CCO)CCCC(C)Nc1ccnc2cc(Cl)ccc12` (centres unmarked) [Hydroxychloroquine HCl], the “effect of inhibitor … by 7c” value in the series with eDHFR-YFP [1] was “does not”.

Take `CC(C)C[C@@H](C=O)NC(=O)[C@H](CC(C)C)NC(=O)[C@H](CC(C)C)NC(=O)OCc1ccccc1` [MG132] (Cbz-Leu-Leu-Leu-aldehyde): in series [6], the “effect of inhibitor … of CAR” value is “blocked TMP-POM 7c-mediated degradation of CAR”.

Regarding `NS(=O)(=O)OC[C@@H]1C[C@@H](n2ccc3c(N[C@H]4CCc5ccccc54)ncnc32)C[C@@H]1O` [MLN4924], in the series with eDHFR-YFP [1], the “effect of inhibitor … by 7c” value was “blocks degradation induced by 7c”. For the same compound, the “effect of inhibitor … of CAR” value in series [6] is “blocked TMP-POM 7c-mediated degradation of CAR”.

As to `COc1cc(Cc2cnc(N)nc2N)cc(OC)c1OCCC[18F]` [[18F]FPTMP, [^18F]Fluoropropyl-Trimethoprim], the “effect of radiotracer exposure on CAR T cell cytotoxic function” value with FAP-eDHFR DF CAR T cells [7] was “does not affect the effectors' ability to signal and kill target cells”. For the same compound, in the series on FAP-eDHFR DF CAR T cells [8], the “in vitro uptake of radiolabeled TMP” value is given as “preserved in vitro uptake”.

As for `CO/C1=C\C(C)=C\[C@@H](C)[C@@H](O)[C@@H](C)C/C(C)=C/C=C/[C@H](OC)[C@@H]([C@@H](C)[C@@H](O)[C@H](C)[C@@]2(O)C[C@@H](O)[C@H](C)[C@@H](C(C)C)O2)OC1=O` [bafilomycin], the “effect of inhibitor … of CAR” value in series [6] is “had no impact on TMP-POM 7c function”.
